Seven molecules from ChEMBL document CHEMBL1201862, “PubChem BioAssay data set” (2004) can be followed below.

What all share (test): NCI-60 cell line screen, 48 h
Test [1] concerns COLO 205.
The test system of test [2] is SF-539.
Test [3] deals with KM12.
The subject of test [4] is OVCAR-4.
Test [5] concerns SK-MEL-2.
Test [6] relates to OVCAR-3.
Test [7] deals with CAKI-1.
Test [8] concerns HCC 2998.
The test system of test [9] is UACC-62.
In test [10] the test system is UACC-257.
Test [11] deals with M14.
The subject of test [12] is ACHN.
Test [13] relates to NCI-H226.
Test [14] deals with NCI-H522.
The subject of test [15] is A498.
Test [16] relates to MDA-MB-231.
For test [17], the system named is SNB-75.
For test [18], the system named is U-251.
The subject of test [19] is Malme-3M.
Test [20] concerns HCT-15.

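Each compound was tested at five concentrations against cells in 96-well plates for 48 hours. GI50: concentration for 50% inhibition of growth.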 Calls of active or inactive are those of the source. Rule as the data show it: active = GI50 up to about 1.1 µM and inactive = higher.

Consider `COc1cccc2nc3c(C(=O)NCCN(C)C)cccc3cc12`, for which the GI50 was 1.13 µM (inactive) in test [1]; 1.85 µM (inactive) in test [2]; 2.3 µM (inactive) in test [3]; 1.67 µM (inactive) in [4]; 4.13 µM (inactive) in test [5]; 3.14 µM (inactive) in [6]. Besides, the GI50 is 0.619 µM (active) in [7]; 3.44 µM (inactive) in [8]; 2.23 µM (inactive) in test [9]; 1.92 µM (inactive) in test [10]; 1.64 µM (inactive) in test [11]; 0.655 µM (active) in [12]. Also, the GI50 in test [13] is 1.4 µM (inactive); in [14] it was 1.26 µM (inactive); in test [15], 0.307 µM (active); in test [16], 2.37 µM (inactive); in test [17], 4.88 µM (inactive); in [18] it was 1.44 µM (inactive). The GI50 is 1.56 µM (inactive) in test [19] and 1.91 µM in test [20].

As to `COC(=O)[C@@H]1COC(=O)N1`, the GI50 in [1], in [2], in test [3], in [4], in test [5] and in test [6] was > 100 µM (inactive) in each case. For the same molecule, the GI50 in test [7], in test [8], in test [9], in test [10], in test [11] and in test [12] was > 100 µM (inactive) each time. Also, the GI50 in [13], in test [14], in test [15], in [16], in test [17] and in test [18] was > 100 µM (inactive) throughout. Also, the GI50 was > 100 µM (inactive) in test [19] and > 100 µM in test [20].

On to `C=C1CC(COc2ccc3c(C)cc(=O)oc3c2)(c2ccccc2)OC1=O` (stereo not given), for which the GI50 in test [1] was 1.34 µM (inactive); in test [2], 2.45 µM (inactive); in [3], 5.47 µM (inactive); in [4], 2.16 µM (inactive); in test [5], 1.4 µM (inactive); in test [6] it was 2.69 µM (inactive). The GI50 is 1.64 µM (inactive) in test [7]; 5.18 µM (inactive) in [8]; 1.61 µM (inactive) in [9]; 1.83 µM (inactive) in [10]; 1.33 µM (inactive) in [11]; 3.37 µM (inactive) in [12]. The GI50 is 6.11 µM (inactive) in [13]; 1.74 µM (inactive) in test [14]; 2.64 µM (inactive) in [15]; 2.74 µM (inactive) in test [16]; 6.95 µM (inactive) in test [17]; 10.4 µM (inactive) in test [18]. Further, the GI50 in test [19] was 1.3 µM (inactive); in test [20] it was 1.74 µM.

For `COC(=O)C(Cc1ccccc1)NC(=O)c1ccc(CNC(=S)NCc2cccc(CNC(=S)NCc3ccccc3)c2)cc1` (stereo not given), the GI50 is > 32.1 µM (inactive) in test [1]; > 62.5 µM (inactive) in test [2]; > 29 µM (inactive) in test [3]; > 32.1 µM (inactive) in [4]; > 33.3 µM (inactive) in test [5]; 27.9 µM (inactive) in [6]. The GI50 in [7] was > 36.4 µM (inactive); in test [8] it was > 35 µM (inactive); in test [9], > 34.6 µM (inactive); in test [10], > 35.8 µM (inactive); in test [11], > 36 µM (inactive); in test [12], > 34.5 µM (inactive). Besides, the GI50 is > 34.1 µM (inactive) in [13]; > 32.5 µM (inactive) in test [14]; > 62.5 µM (inactive) in test [15]; > 34 µM (inactive) in test [16]; 13.4 µM (inactive) in test [17]; > 33.5 µM (inactive) in test [18]. Further, the GI50 in test [19] is > 34.9 µM (inactive); in test [20], > 35.2 µM.

For the molecule `NC1=CN(Cc2ccccc2)C2=N/C(=C\c3ccco3)C(=O)N12`, the GI50 in [1], in [2], in [3], in test [4], in test [5] and in test [6] was > 100 µM (inactive) throughout. For the same molecule, the GI50 in [7], in [8], in test [9], in [10], in [11] and in test [12] was > 100 µM (inactive) in each case. Also, the GI50 in test [13], in test [14], in test [15], in test [16], in [17] and in test [18] was > 100 µM (inactive) throughout. For the same molecule, the GI50 in test [19] is > 100 µM (inactive); in [20] it was > 100 µM.

Regarding `O=C(N/N=C(COc1ccccc1)\N=C\c1cccnc1)c1ccncc1`, the GI50 in test [1], in [2], in test [3], in test [4], in test [5] and in test [6] was > 100 µM (inactive) throughout. Besides, the GI50 in test [7], in test [8], in test [9], in [10], in test [11] and in [12] was > 100 µM (inactive) in each case. Also, the GI50 in test [13] was > 100 µM (inactive); in test [14], > 100 µM (inactive); in [15], > 100 µM (inactive); in test [16] it was > 100 µM (inactive); in test [17], 36.8 µM (inactive); in test [18], > 100 µM (inactive). Also, the GI50 in test [19] is > 100 µM (inactive); in test [20], > 100 µM.

As for `C=CCc1cc(-c2cc(CC=C)c(O)c(CN(CCCl)CCCl)c2)cc(CN(CCCl)CCCl)c1O`, the GI50 in [1] was 17.7 µM (inactive); in test [2], 12.2 µM (inactive); in test [3] it was 18.2 µM (inactive); in test [4], 17.6 µM (inactive); in test [5], 22.1 µM (inactive); in test [6], 15.2 µM (inactive). In addition, the GI50 was 8.22 µM (inactive) in [7]; 15.6 µM (inactive) in test [8]; 7.89 µM (inactive) in [9]; 16 µM (inactive) in test [10]; 15.4 µM (inactive) in test [11]; 7.69 µM (inactive) in test [12]. Also, the GI50 is 15.6 µM (inactive) in test [13]; 10.9 µM (inactive) in test [14]; 20.7 µM (inactive) in test [15]; 18.6 µM (inactive) in test [16]; 16.3 µM (inactive) in [17]; 10.8 µM (inactive) in test [18]. In addition, the GI50 in [19] was 18.7 µM (inactive); in test [20], 15.5 µM.
